# In US7367941B2, “Detection and characterization of cholinergic oscillatory control in peripheral microvasculature” (Yale University, priority 2000, dated 2008):
# Experiments:
# Assay type in all cases: in vivo, human
# [1] = system: R-R intervals of the electrocardiogram; assay: ECG R-R interval variability (APSDR-R, time-domain indices), HR and BP during phenylephrine and added atropine; conditions: for effect on BP and HR (R-R interval): spontaneous and metronome breathing
# Procedure: (§1) With IRB approval, 15 healthy nonsmoking male volunteers were instructed to refrain from caffeine and other known vasoactive compounds for at least 24 hours prior and then lie recumbent in a temperature-regulated room (70±1° F.). Surface electrodes were applied for monitoring ECG and respiration, a noninvasive BP cuff was placed over the brachial artery of one arm, and a 22 gauge intravenous catheter was placed in the opposite arm. In the first eight subjects, laser Doppler flowmetry probes (Periflux 2B, Perimed, Sweden) then were applied to the skin via double-stick tape on the forehead and on the finger contralateral to the BP cuff. In the remaining seven subjects, the sites of laser Doppler monitoring were modified and additional monitors were applied (see Example 3).
# (§2) The ECG, respiration, and laser Doppler flux were recorded at 250 Hz with a microprocessor-based system which consisted of analog to digital converters, commercially available data acquisition and waveform analysis software (SnapMaster, HEM Data Corp.) and customized software for beat detection. Each R-wave was identified using the recommended combination of derivative plus threshold detection of the fiducial point of the data sampled at 250 Hz (Task Force of the European Society of Cardiology and the North American Society of Pacing and Electrophysiology: Heart rate variability. Standards of measurement, physiological interpretation, and clinical use. Circulation 1996;93:1043-1065). Ectopic beats were to be replaced with an interpolated value, but none were noted. BP was recorded at 2-5 min intervals.
# (§3) Following 5 min of baseline (BASE) monitoring during spontaneous ventilation BASESPONT), each subject breathed in synchrony with an audible metronome at a rate of 12 breaths/min (BASEMETRO); each segment lasted 5 min (of which the middle 200 sec were used for subsequent analysis). Subjects then received an infusion of phenylephrine, which was titrated until there was >25% decline in finger flow for 10 min. […] Five minutes of data during this PHENYL phase were recorded during SPONT and during METRO (PHENYLSPONT and PHENYLMETRO). Atropine was then administered IV in 0.25-0.50 mg increments until HR was at least 33% above PHENYL. Measurements during this PH+ATR phase were recorded for 5 min during each of the two respiratory patterns (PH+ATRSPONT and PH+ATRMETRO). The phenylephrine then was discontinued. The values from all subjects were averaged to provide the overall means±standard error (SE) for the sampling periods that are summarized in the FIGS. 5-8.
# (§4) The frequency and power of the oscillations of the R-R intervals and laser Doppler flux values (flux) were characterized by frequency-domain analysis. As described in the prior art (Task Force of the European Society of Cardiology, 1996), the “R-R tachogram” and laser Doppler signal were resampled at 5 Hz, a rate more than sufficient to enable identification of oscillatory frequencies within the frequency range of interest (according to Nyquist's theorem and recent Task Force recommendations (see Task Force of the European Society of Cardiology, 1996)). An APSD was then generated for the R-R interval [APSDR-R (msec^2/Hz vs. Hz)], for the laser Doppler signal taken at the forehead [APSDFOREHEAD FLUX (mVolt^2/Hz vs. Hz)], and for the laser Doppler signal taken at the finger [APSDFINGER (mvolt^2/Hz vs. Hz)] in each subject using a traditional (Parzan) window. For each APSD, 200 sec of data were resampled at 5 Hz, providing a spectral resolution of 0.005 Hz (5 cycles per sec/1,000 data points); the mean value of the signal was subtracted from the data to eliminate its influence on the APSD. For purposes of presentation, each pair of adjacent 0.005 Hz bins was summated to provide bins with a width of 0.01 Hz. […]
# [2] = system: forehead microvasculature; assay: Laser Doppler flowmetry of forehead flux, spectral- and time-domain analysis, during phenylephrine challenge and added atropine; conditions: for beat-to-beat % change of forehead flux: p<0.05; for flux at the forehead: mean (SE)
# Procedure: as §1, §2, §3, §4
# [3] = system: finger microvasculature; assay: Laser Doppler flowmetry of finger flux during phenylephrine infusion
# Procedure: as §1, with “In the remaining seven subjects, the sites of laser Doppler monitoring were modified and additional monitors were applied (see Example 3).” left out
# The ECG, respiration, and laser Doppler flux were recorded at 250 Hz with a microprocessor-based system which consisted of analog to digital converters, commercially available data acquisition and waveform analysis software (SnapMaster, HEM Data Corp.) and customized software for beat detection. […] BP was recorded at 2-5 min intervals.
# Following 5 min of baseline (BASE) monitoring during spontaneous ventilation BASESPONT), each subject breathed in synchrony with an audible metronome at a rate of 12 breaths/min (BASEMETRO); each segment lasted 5 min (of which the middle 200 sec were used for subsequent analysis). […] Five minutes of data during this PHENYL phase were recorded during SPONT and during METRO (PHENYLSPONT and PHENYLMETRO). […]
# [4] = system: forehead microvasculature; assay: Laser Doppler flowmetry of forehead flux, spectral- and time-domain analysis, during phenylephrine challenge and added atropine
# [5] = system: forehead flux and R-R oscillations; assay: Cross power spectral density of forehead flux and R-R after normalization to mean; conditions: PHENYL
# Procedure: FIGS. 11A-D are a graphical comparison of normalized data in the time and frequency-domains, in accordance with the present invention. The signals were normalized prior to time and frequency domain analysis, as follows: (1) LDF flow data was resampled at 5 Hz (data from FIG. 5); (2) mean flow data for the entire study segment (i.e., 5.33522) was determined; and (3) the normalized values were obtained by dividing each resampled value by the corresponding mean value for the study segment. Normalization facilitates visual inspection as well as time-domain and spectral-domain comparisons of the oscillatory signal(s) to values under different circumstances (e.g. baseline vs. challenge state) or to the values of another parameter. Although the values in FIG. 11 were normalized to the mean, it may be preferable in some settings to normalize to the median since this is less affected by outliers. […] The CPSD is calculated by determining the normalized power of a signal from the instantaneous amplitude-spectrum using the following equation: Gab=ave(SaSb*)/df where Gab=instantaneous amplitude spectral density of the sampling channels; Sa=instantaneous amplitude spectrum of channel a; Sb*=complex conjugate of Sb; df=frequency resolution. […]
smiles,measurement,setting,value
CN1[C@@H]2CC[C@H]1C[C@@H](OC(=O)C(CO)c1ccccc1)C2 (some centres unmarked) [atropine],effect on power in the max bin of APSDR-R,"[1]; atropine added to phenylephrine, SPONT and METRO",decrease significantly below BASE values
same,effect on BP and HR (R-R interval),[1],exacerbated the increase in BP and reversed the prolongation of the R-R interval
same,effect on maxbin power of APSDFOREHEADFLUX,"[2]; atropine IV added to phenylephrine infusion (PH+ATR), METRO, p=NS vs BASE",reduced power in the maxbin to near-BASE
same,effect on phenylephrine-induced HF forehead oscillatory signal,[2]; atropine added to phenylephrine,nearly eliminated
CNC[C@H](O)c1cccc(O)c1 [phenylephrine],atropine-sensitive oscillations in the finger,[3]; phenylephrine infusion,did not induce atropine-sensitive oscillations in the finger
same,Finger flux decline,"[3]; phenylephrine infusion 0.4-0.6 μg/kg/min, both METRO and SPONT, p<0.05",approximately 50%
same,maxbin frequency of the APSDFOREHEAD FLUX,"[4]; one subject, phenylephrine infusion, continuous intra-arterial monitoring",0.13 Hz
same,frequency at which forehead oscillations increased,"[4]; two subjects, phenylephrine bolus",approximately 0.13 Hz
same,power/bin for each of the 26 bins in the APSDR-R,"[1]; METRO, PHENYL, BASE 475.4 (111.7)",393.8 (100.9) msec^2/Hz
same,normalized power of the max bin (0.2 Hz) of APSDR-R,"[1]; METRO, PHENYL, BASE 799.7 (138.2)%",1050.0 (205.8) %
same,power of the max bin of the RF band of APSDR-R,"[1]; METRO, PHENYL, BASE 4,354 (1556.0)",4060.2 (996.2) msec^2/Hz
same,beat-to-beat % change of R-R,"[1]; metronome breathing, PHENYL, BASE 4.3 (0.6)%, p=0.2",5.6 (0.7) %
same,effect on BP and HR (R-R interval),[1],increase in BP and slowing of HR
same,beat-to-beat % change of R-R,"[1]; spontaneous breathing, PHENYL, BASE 3.2 (0.4)%, p=ns",3.7 (0.4) %
same,degree to which maxbin in IF band of CPSDFLUX&R-R reflected power in maxbin of APSDFOREHEADFLUX/mean,"[5]; BASE 32.3±10.7%, p=0.004",7.0±1.8%
same,relative degree to which maxbin in IF band of APSDR-R/mean reflected power in maxbin of CPSDFLUX&R-R,"[5]; BASE 33.6±11.0%, p=0.002",7.3±1.8%
same,Power/bin of the APSDFOREHEADFLUX,"[2]; METRO, PHENYL, BASE 1.3(0.5), p=0.0005",6.5(2.2) mvolt^2/Hz
same,beat-to-beat % change of forehead flux,"[2]; METRO, PHENYL, BASE 4.9 (1.1)%",11.9 (2.3) %
same,Maxbin power of APSDFOREHEADFLUX,"[2]; METRO, PHENYL, BASE 10.2(5.5), p=0.0003",101.7(39.7) mvolt^2/Hz
same,"normalized maxbin power of APSDFOREHEADFLUX, % of average power/bin at BASE",[2]; PHENYLMETRO,"7,304(1,630) %"
same,flux at the forehead,"[2]; PHENYLMETRO, p>0.4 vs BASE 2.1 (0.5)",2.3 (0.6) volts
same,frequency of atropine-sensitive peak in APSDFOREHEADFLUX,[2]; PHENYLSPONT,0.14±0.02 Hz
same,"normalized maxbin power of APSDFOREHEADFLUX, % of average power/bin at BASE",[2]; PHENYLSPONT,"8,061(4,550) %"
same,flux at the forehead,"[2]; PHENYLSPONT, p>0.3 vs BASE 2.1 (0.5)",1.5 (0.6) volts
same,beat-to-beat % change of forehead flux,"[2]; SPONT, PHENYL, BASE 3.4 (0.3)%",10.7 (2.2) %
same,frequency of maxbin / oscillatory peak in APSDFOREHEADFLUX,"[2]; phenylephrine infusion, METRO (0.20 Hz breathing)",0.14±0.02 Hz
